“Also recorded” adds a separate entry of the source.
Assays:
[1] = test system: SEM, RS4,11, and P12 leukemia cell lines; assay: Inhibition of proliferation in three leukemia cell lines; format: cell-based; settings: Homo sapiens; range over SEM, RS4,11 and P12 cell lines
Protocol: Compound 1 was assayed for inhibition of proliferation in three leukemia cell lines, i.e., (1) SEM, (2) RS4,11, and (3) P12 by […]. The cells for the proliferation assay were spun down and re-suspended. The cell suspension was then divided and Compound 1 was added in desired concentrations and subsequently plated. Following an incubation period, the […] (Promega CellTiter 96® Aqueous Non-Radioactive Cell Proliferation Assay) was added and allowed to incubate. The absorbance is subsequently measured at 490 nm using a plate reader.

SEM cell line = assay: Flow based Annexin V apoptosis and cell death assay; set-up: species or system human; settings: Annexin V kit
Source text: Compound 1 was further analyzed for its effect on cell apoptosis and cell death using a flow based assay using Annexin V kit.

Rac = assay: Pull down assay of Rac activation with Western blot; format: cell-based, human; settings: SEM cell line
Protocol: Further, a biochemical pull down assay using the SEM cell line was performed to confirm specific inhibition of Rac activation by Compound 1 as indicated by disruption of the interaction between Rac and GTPase. The assay initially required treatment of cells followed by pull down and analysis with Western blot. The cells were first starved in serum free media for 2 hours. They were then re-suspended in serum-containing medium. NSC23766 and Compound 1 were added at desired concentrations. Following incubation for the desired length of time, the cells were pelleted and lysed with Magnesium Lysis Buffer (Millipore Mg^2+ lysis/wash buffer).

[2] = test system: mononuclear bone marrow cells from WT mice; assay: Colony forming unit assay (CFU assay) for toxicity; format: cell-based
Protocol: The formulation obtained in Example 2 was used for evaluating the toxicity of Compound 1 in a colony forming unit assay (CFU assay), which was performed by plating mononuclear bone marrow cells from WT mice in methylcellulose media supplemented with different doses of Compound 1, NSC23766, and DMSO. The number of colonies formed in each condition was scored 7 days after plating.

P12 xenograft = assay: Anti-leukemia activity in mouse model of human leukemia (bioluminescence imaging, mCherry cells in bone marrow); format: in vivo, mice; settings: 10 mg/kg and 100 mg/kg
Protocol: (§1) Bioluminecence imaging (BLI) analysis was performed by treating a mouse model (8 mice) of human leukemia (P12 xenograft) with two different doses of Compound 1 (i.e., 10 and 100 mg/kilogram of body weight) using the formulation obtained in Example 2. P12 cells were transduced with a vector encoding for Luciferase and mCherry as a fluorescent marker. Treatment was started 5 days after inoculation of the cell line, and carried out by oral gavage for 18 days twice a day. Mice were imaged twice a week to obtain a quantification of the disease burden.

[3] = Relative weight of mice during the efficacy study; format: in vivo; settings: 10 mg/kg and 100 mg/kg, normalized to average weight before treatment
Protocol: as §1

[4] = test system: sensitive leukemic cell lines; assay: Induction of apoptosis in leukemic cell lines
[5] = test system: P12 cells with NRAS G12D mutation

IC50 [1] [µM]	SMILES	cell apoptosis and cell death (SEM cell line)	total Rac levels (Rac)	Rac activation (Rac; pull down)	concentration up to which no toxicity toward clonogenic progenitor bone marrow cells was seen ([2]; colonies scored 7 days after plating) [µM]	concentration without toxicity relative to the IC50 ([2]; fold the IC50) [fold]	mCherry positive cells in the bone marrow (P12 xenograft; fold change to the vehicle group)	bioluminescence (disease burden) (P12 xenograft; oral gavage twice a day for 18 days)	relative weight of the mice [3]	apoptosis [4]	PDE6D/ARL2/3-dependent trafficking of RAS [5]
0.8 to 7	O=C(CCc1nnc(CCc2c[nH]c3ccccc23)o1)N1CCN(c2ccc(F)cc2)CC1 [Compound 1, 1-[4-(4-fluorophenyl)piperazin-1-yl]-3-{5-[2-(1H-indol-3-yl)ethyl]-1,3,4-oxadiazol-2-yl}propan-1-one]	caused cells apoptosis and cell death in the SEM cell line in a dose-dependent manner	no significant effect on total Rac levels	significant reduction of Rac activation; also recorded: dose dependent reduction of Rac activation	~100	> 100	effectively inhibit proliferation	significantly reduced the bioluminescence	relatively stable over the course of treatment	–	–
–	CCc1ccc(CN(C)C(=O)CCc2nnc(CCc3c[nH]c4ccccc34)o2)cc1 [Compound 5]	–	–	–	–	–	–	–	–	induced apoptosis	affected PDE6D/ARL2/3-dependent trafficking of RAS
